Where two headings read alike, the source gives them in different places.
Legend:
Tubazide-resistent H37Rv = assay type: in vivo, tuberculosis mycobacteria; mice of the CBA line; details: for Damage index / Life duration / Weight of the lung: Tubazide-resistent H37Rv
[1] = test system: antibody-forming cells (AFC) in the spleens; assay: Antibody-forming cells in the spleen, immunodeficiency caused by irradiation (Jeme-Nordin's procedure); assay type: in vivo, mice F1 (CBA×C57BL/6); details: irradiated mice 4 Gy
Procedure: Determination of immunotropic activity of isophonum was carried out. Immunotropic activity of isophonum was determined on a model of immunodeficiency caused by irradiation. To create an immunodeficient state the mice F1 (CBA×C57BL/6) were irradiated with gamma-rays on a radioterapeutic apparatus in a dose of 4 Gy (Gy is the irradiation unit gray) at an irradiation dose power of 0.55 Gr/min. The number of antibody-forming cells (AFC) in the spleens was calculated by Jeme-Nordin's procedure. Isophonum and diuciphonum were introduced per os over a wide range of doses. The investigation results are represented in Table 1.

[2] = test system: tuberculosis mycobacteria H37Rv (USSR H37Rv); assay type: in vivo, tuberculosis mycobacteria; mice of the CBA line; details: for Damage index / Life duration / Weight of the lung: USSR H37Rv
white unbred mice = assay: Toxicity on white unbred mice by Litchfild-Wilkokson's procedure; assay type: in vivo; details: white unbred mice 18 to 20 g, sharp experiment
leprosy mycobacteria = assay: Example 3, patient I., lepromatose-typed leprosy, combination treatment; assay type: in vivo, human
Procedure: They had been ill for 8 years. BIN=66.8-10.8-5.5 where BIN means bacteriological index. […] HI=5,4 where HI means histological index. The patient was ordered the following treatment: 200 mg of isophonum internally twice a day, 200 mg of diuciphonum i.m. and 100 mg dimocifon internally twice a day.
After 8 months of treatment the agent of leprosy vanished in the scrape of nasal mucosa, BIN was 8.3-14.2-4.2, the immunologic parameters normalized. Atfer a year of treatment many of the infiltrates resolved and the other sharply diminished in size and became soft and elastic with their colour changed from rust-brown to cyanotic. BIN became 5.7-4.8-5.3.
There came lymphocytes in moderate numbers. […] The patient continues to undergo treatment.

[3] = test system: chlamydious infection, PCND; assay: Double blind clinical test, chlamydiosis and pulmonary chronic nonspecific diseases; assay type: in vivo, human
Procedure: The investigation was carried out randomizedly by a “double blind method” on 45 patients aged 25 to 49 years.
The group I consisting of 15 patients (10 persons with pulmonary chronic nonspecific diseases (PCND), 6 of them having chronic catarrhal obstructive bronchitis and 4 having chronic catarrhal nonobstructive bronchitis; 4 persons with chlamydious infection and one person with ureaplasmic infection) received the preparation claimed as monotherapy in a daily dose of 200 mg during 30 days. The group II consisting of 15 patients (8 persons with chlamydious infection, 7 persons with PCND, 5 of them having chronic catarrhal bronchitis, 2 having bronchiectatic disease) received the preparation of the present invention as monotherapy in a daily dose of 400 mg during 30 days. The group III consisting of 15 patients (13 persons with PCND, 7 of them having chronic catarrhal nonobstructive bronchitis and 6 having chronic catarrhal obstructive bronchitis; 2 persons with chlamydious infection) received a placebo.

Storage stability = assay type: physicochemical
Text: More precisely, isophonum is produced by boiling equimolecular amounts of isonicotinic acid hydrazide and 6-methyluracyl-5-sulfochloride in anhydrous acetonitrile. The samples of isophonum maintain their properties during the period of time of 3 years.

agent of leprosy = assay: Example 1, patient X, border-line tuberculoid leprosy; assay type: in vivo, human; design: histological index: scale not given here; Leucocytes / T-lymphocytes: unit not given here
Text: The patient X was admitted to a clinic with a diagnosis “border-line tuberculoid leprosy”. They had been considering themself ill for two years. They supposed that they had been infected in Africa where they had worked 8 years ago and used to receive vegetables from lepers. On the skin of the back, on the skin of the lateral abdiminal surfaces, on the left hip and shin, the left temple area of the head there were yellowish-reddish papules with a rust-coloured hue and sized 1.5 times 2 cm to 4 times 6 cm with no sensitivity in ther center. Disorder of sensitivity was noted along the length of peroneal and elbow nerves. The agent of leprosy was neither detected in the scrape from the nasal mucosa nor in the lymph on the bacterioscopic investigation. […] In the surface layers of derma there were multiple infiltrates and in the deeper layers of the skin there were focal and strand infiltrates. The histological index was equal to 1.1. The patient was prescribed a treatment in the form of isophonum to be taken internally 0.2 g each time twice a day. After 3.5 months all the elements (plaques) on the skin completely resolved and were replaced by hyperpigmented spots which after 4 months completely gained the colour of a normal skin. […] The patient was not hospitalyzed and received home treatment without interrupting their work. […] The histological index equaled 0. When histological investigation was repeated after 7 months with the purpose of transfering the patient under dispensary observation, the agent of leprosy was not detected either, in the surface layer of the derma were noted some small infiltrates out of lymphocytes with epithelioid cells in the form of accumulations.
In deeper layers of the skin there were small infiltrates around the blood vessels. It was decided to prolong the treatment of the patient for 6 months by administering isophonum internally in combination with diuciphonum.

[4] = after a year, combination with diuciphonum and dimocifon

Cc1[nH]c(=O)[nH]c(=O)c1S(=O)(=O)NNC(=O)c1ccncc1.O [Isophonum, N-(6-methyl-2,4-dioxo-1,2,3,4-tetrahydro-5-pyrimidinsulfon)-N′-isonicotinoylhydrazide hydrate]
Damage index (Tubazide-resistent H37Rv; 100 μg per mouse): 1.91 ± 0.18 | Life duration (Tubazide-resistent H37Rv; 100 μg per mouse): 35.2 ± 3.4 | Weight of the lung (Tubazide-resistent H37Rv; 100 μg per mouse): 493.4 ± 65.1 | Damage index (Tubazide-resistent H37Rv; 200 μg per mouse): 1.72 ± 0.24 | Life duration (Tubazide-resistent H37Rv; 200 μg per mouse): 37.1 ± 6.2 | Weight of the lung (Tubazide-resistent H37Rv; 200 μg per mouse): 478.2 ± 60.8 | antituberculous action (Tubazide-resistent H37Rv; mycobacteria resistent to tubazide and streptomycin): pronounced antituberculous action | AFC-number in the spleen ([1]; 10 μg per mouse per os): 1013 ± 126 | Immune response stimulation index ([1]; 10 μg per mouse per os): 3.63 ± 0.57 | AFC-number in the spleen ([1]; 100 μg per mouse per os): 1173 ± 125 | Immune response stimulation index ([1]; 100 μg per mouse per os): 4.28 ± 0.8 | AFC-number in the spleen ([1]; 1000 μg per mouse per os): 1216 ± 124 | Immune response stimulation index ([1]; 1000 μg per mouse per os): 4.46 ± 0.9 | Damage index ([2]; 100 μg per mouse): 1.91 ± 0.18 | Life duration ([2]; 100 μg per mouse): 34.6 ± 4.8 | Weight of the lung ([2]; 100 μg per mouse): 507.0 ± 48.4 | Damage index ([2]; 200 μg per mouse): 1.81 ± 0.21 | Life duration ([2]; 200 μg per mouse): 35.7 ± 5.2 | Weight of the lung ([2]; 200 μg per mouse): 495.4 ± 56.1 | antituberculous action ([2]; mouse, in vivo): pronounced antituberculous action | toxicity (white unbred mice): exceed 7000 mg/kg | HI (histological index) (leprosy mycobacteria; [4]): 4.8 | amount of B-lymphocytes (leprosy mycobacteria; [4]): 12% | amount of T-helpers (leprosy mycobacteria; [4]): 66% | amount of T-lymphocytes (leprosy mycobacteria; [4]): 85% | immunoregilatory index (leprosy mycobacteria; [4]): 3.4 | total number of lymphocytes (leprosy mycobacteria; [4]): 51% | HI (histological index) (leprosy mycobacteria; patient I., on hospitalization): 5,4 | side effects ([3]; dose of 200 mg and dose of 400 mg): does not have any side effects | number of patients with improvement of clinico-immunologic indices ([3]; group I, 15 patients, 200 mg per day, 30 days): 14 people | number of patients with improvement of clinico-immunologic parameters ([3]; group II, 15 patients, 400 mg daily, 30 days): 14 persons | signs of individual intolerance ([3]; one patient of group I, 200 mg per day, 3rd day of intake): nausea and vomiting | period of time during which samples maintain their properties (Storage stability): 3 years | time after which all the elements (plaques) on the skin completely resolved (agent of leprosy; 0.2 g twice a day): 3.5 months | histological index (agent of leprosy; 3 months later, 0.2 g twice a day): 0 | histological index (agent of leprosy; before treatment): 1.1 | B-lymphocytes, % (agent of leprosy; day 0 (before treatment)): 12% | Leucocytes (agent of leprosy; day 0 (before treatment)): 6.1 | Lymphocytes, % (agent of leprosy; day 0 (before treatment)): 18% | T-helpers, % (agent of leprosy; day 0 (before treatment)): 50% | T-lymphocytes (agent of leprosy; day 0 (before treatment)): 57 | T-suppressors (agent of leprosy; day 0 (before treatment)): 4 | B-lymphocytes, % (agent of leprosy; day 180, 0.2 g twice a day): 17% | Leucocytes (agent of leprosy; day 180, 0.2 g twice a day): 6.8 | Lymphocytes, % (agent of leprosy; day 180, 0.2 g twice a day): 30% | T-helpers, % (agent of leprosy; day 180, 0.2 g twice a day): 63% | T-lymphocytes (agent of leprosy; day 180, 0.2 g twice a day): 80 | T-suppressors (agent of leprosy; day 180, 0.2 g twice a day): 27 | Phagocytosis (agent of leprosy; first column (no day head; presumably day 0)): 30 | Phagocytosis (agent of leprosy; second column (no day head; presumably day 180)): 5
